The text below walks through data of patent US10703741B2, “Covalent inhibitors of PAD4” (Padlock Therapeutics, Inc., priority 2016, dated 2020).

One test deals with hPAD4 enzyme (Homo sapiens (Human), UniProt Q9UM07). Briefly: PAD4 RapidFire Mass Spectrometry (RFMS) activity assay, hPAD4. Format: biochemical.
The next test has as its target mPAD4 (Mus musculus (Mouse), UniProt Q9Z183). Briefly: PAD4 RapidFire Mass Spectrometry (RFMS) activity assay, mPAD4. The format is biochemical.
The mark [1] stands for this setting: 100 nM hPAD4, 50 μM substrate peptide, 1 mM CaCl2, 65 mins at 37° C., read-out: hPAD4 RFMS IC50.
[2] abbreviates: pIC50=−log(IC50), read-out: hPAD4 RFMS pIC50 (converted).
The mark [3] stands for this setting: pIC50=−log(IC50), read-out: mPAD4 RFMS pIC50 (converted).

Molecules are shown by their SMILES. Where two headings read alike, the source gives them in different places.

Sequence of hPAD4 enzyme (Q9UM07 whole entry): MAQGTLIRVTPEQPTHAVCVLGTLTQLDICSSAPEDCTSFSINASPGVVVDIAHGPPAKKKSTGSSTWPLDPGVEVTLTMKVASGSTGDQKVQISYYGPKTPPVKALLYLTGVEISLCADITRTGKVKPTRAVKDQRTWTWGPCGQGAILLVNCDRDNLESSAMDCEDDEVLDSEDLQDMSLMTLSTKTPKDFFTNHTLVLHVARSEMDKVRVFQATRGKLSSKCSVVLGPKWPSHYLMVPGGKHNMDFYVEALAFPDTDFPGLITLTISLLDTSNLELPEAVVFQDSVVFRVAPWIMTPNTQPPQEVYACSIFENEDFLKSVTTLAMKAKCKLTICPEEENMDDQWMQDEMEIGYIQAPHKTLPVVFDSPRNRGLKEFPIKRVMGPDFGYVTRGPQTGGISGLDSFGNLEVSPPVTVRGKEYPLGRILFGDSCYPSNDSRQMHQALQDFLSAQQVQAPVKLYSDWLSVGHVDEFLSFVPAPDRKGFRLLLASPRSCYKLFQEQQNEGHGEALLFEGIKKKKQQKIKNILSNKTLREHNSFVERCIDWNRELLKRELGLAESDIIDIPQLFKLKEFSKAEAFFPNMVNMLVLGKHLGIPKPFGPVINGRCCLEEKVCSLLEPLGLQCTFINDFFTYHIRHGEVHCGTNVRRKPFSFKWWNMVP
Sequence of mPAD4 (Q9Z183 whole entry): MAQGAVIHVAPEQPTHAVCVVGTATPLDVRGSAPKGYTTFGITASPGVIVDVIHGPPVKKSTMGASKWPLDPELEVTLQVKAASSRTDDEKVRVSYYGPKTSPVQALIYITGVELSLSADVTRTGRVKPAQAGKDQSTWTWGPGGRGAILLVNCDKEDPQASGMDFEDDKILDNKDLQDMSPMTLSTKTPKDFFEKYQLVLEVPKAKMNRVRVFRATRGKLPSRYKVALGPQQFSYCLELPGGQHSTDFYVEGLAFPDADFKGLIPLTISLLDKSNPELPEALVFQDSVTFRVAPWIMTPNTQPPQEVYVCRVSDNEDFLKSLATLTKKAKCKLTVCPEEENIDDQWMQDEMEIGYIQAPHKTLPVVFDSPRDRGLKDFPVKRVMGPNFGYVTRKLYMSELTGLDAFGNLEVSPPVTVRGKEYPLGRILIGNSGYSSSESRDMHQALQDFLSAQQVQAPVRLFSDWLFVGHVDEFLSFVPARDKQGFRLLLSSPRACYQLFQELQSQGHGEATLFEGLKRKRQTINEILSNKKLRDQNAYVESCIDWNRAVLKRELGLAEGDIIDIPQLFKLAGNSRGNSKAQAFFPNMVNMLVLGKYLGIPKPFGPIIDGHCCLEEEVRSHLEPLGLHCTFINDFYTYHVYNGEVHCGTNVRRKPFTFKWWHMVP

For the molecule `CN(C)C/C=C/C(=O)N[C@H]1CCN(C(=O)c2ccc3c(c2)nc(-c2cc4cccnc4n2CC2CC2)n3C)C[C@H]1N` (racemic) [Compound I-3, Cis-rac-(2E)-N-[(3R,4S)-3-amino-1-{2-[1-(cyclopropylmethyl)-1H-pyrrolo[2,3-b]pyridin-2-yl]-1-methyl-1H-1,3-benzodiazole-5-carbonyl}piperidin-4-yl]-4-(dimethylamino)but-2-enamide], the IC50 on hPAD4 enzyme (setting [1]) was more than 10 µM; on hPAD4 enzyme (setting [2]) it was 100 to 100000 µM; at mPAD4 (setting [3]), 10 to 100 µM; at mPAD4 (read-out: mPAD4 RFMS IC50), more than 10 µM.

With `CN(C)C/C=C/C(=O)N[C@@H]1C[C@H](N)CN(C(=O)c2ccc3c(c2)nc(-c2cc4cccnc4n2CC2CC2)n3C)C1` (racemic) [Compound I-10, Cis-rac-(2E)-N-[(3R,5S)-5-amino-1-{2-[1-(cyclopropylmethyl)-1H-pyrrolo[2,3-b]pyridin-2-yl]-1-methyl-1H-1,3-benzodiazole-5-carbonyl}piperidin-3-yl]-4-(dimethylamino)but-2-enamide], the IC50 on hPAD4 enzyme (setting [1]) was more than 10 µM; on hPAD4 enzyme (setting [2]), 10 to 100 µM; at mPAD4 (setting [3]), 10 to 100 µM; at mPAD4 (read-out: mPAD4 RFMS IC50) it was more than 10 µM.

`C=CC(=O)O[C@@H]1CNC[C@@H]1NC(=O)c1ccc2c(c1)nc(-c1cc3cccnc3n1CC1CC1)n2C` (racemic) [Compound I-11, Rac-(3R,4S)-4-{2-[1-(cyclopropylmethyl)-1H-pyrrolo[2,3-b]pyridin-2-yl]-1-methyl-1H-1,3-benzodiazole-5-amido}pyrrolidin-3-yl prop-2-enoate]: the IC50 at hPAD4 enzyme (setting [1]) is more than 10 µM; at hPAD4 enzyme (setting [2]) it was 10 to 100 µM.

On to `C=CC(=O)N(C)[C@@H]1C[C@@H]2CN(C(=O)c3cc(OC)c4c(c3)nc(-c3cc5cccnc5n3CC3CC3)n4C)[C@H]1[C@@H]2N` (single isomer, unassigned) [Compound I-16], for which the IC50 at hPAD4 enzyme (setting [1]) was more than 10 µM; at hPAD4 enzyme (setting [2]), 100 to 100000 µM.

With `C=CC(=O)N(C)[C@H]1C[C@@H]2CN(C(=O)c3cc(OC)c4c(c3)nc(-c3cc5cccnc5n3CC3CC3)n4C)[C@H]1[C@@H]2N` (single isomer, unassigned) [Compound I-17], the IC50 was more than 10 µM on hPAD4 enzyme (setting [1]) and 100 to 100000 µM at hPAD4 enzyme (setting [2]).

With `C/C=C/C(=O)N[C@@H]1CNC[C@H]1NC(=O)c1ccc2c(c1)nc(-c1cc3cccnc3n1CC1CC1)n2C` [Compound I-6], the IC50 at hPAD4 enzyme (setting [1]) is more than 10 µM; on hPAD4 enzyme (setting [2]), 100 to 100000 µM.

As for `CN(C)C/C=C/C(=O)NCCN(CCc1cnc[nH]1)C(=O)c1ccc2c(c1)nc(-c1cc3cccnc3n1CC1CC1)n2C` [Compound I-7, (2E)-N-[2-(1-{2-[1-(Cyclopropylmethyl)-1H-pyrrolo[2,3-b]pyridin-2-yl]-1-methyl-1H-1,3-benzodiazol-5-yl}-N-[2-(1H-imidazol-5-yl)ethyl]formamido)ethyl]-4-(dimethylamino)but-2-enamide], the IC50 at hPAD4 enzyme (setting [1]) was more than 10 µM; at hPAD4 enzyme (setting [2]) it was 100 to 100000 µM.

Take `CN(C)C/C=C/C(=O)N[C@@H]1CCCN(C(=O)c2ccc3c(c2)nc(-c2cc4cccnc4n2CC2CC2)n3C)C1` [Compound I-12, (2E)-N-[(3R)-1-{2-[1-(cyclopropylmethyl)-1H-pyrrolo[2,3-b]pyridin-2-yl]-1-methyl-1H-1,3-benzodiazole-5-carbonyl}piperidin-3-yl]-4-(dimethylamino)but-2-enamide]: the IC50 was more than 10 µM at hPAD4 enzyme (setting [1]) and 10 to 100 µM at hPAD4 enzyme (setting [2]).

In the case of `C=CC(=O)N[C@@H]1CCCN(C(=O)c2ccc3c(c2)nc(-c2cc4cccnc4n2CC2CC2)n3C)C1` [Compound I-13, N-[(3R)-1-{2-[1-(cyclopropylmethyl)-1H-pyrrolo[2,3-b]pyridin-2-yl]-1-methyl-1H-1,3-benzodiazole-5-carbonyl}piperidin-3-yl]prop-2-enamide], the IC50 on hPAD4 enzyme (setting [1]) was more than 10 µM; at hPAD4 enzyme (setting [2]) it was 100 to 100000 µM.
